Results as given in patent US10941152B2, “Pyrazole compounds as modulators of FSHR and uses thereof” (TOCOPHERX, INC., priority 2014, dated 2021).

What was measured:
[1] = biological target: T1, FSHR (Homo sapiens, UniProt P23945); assay: EC50 of cyclic AMP production in CHO FSHR cells + EC20 FSH (Assay A); type: cell-based; conditions: cyclic AMP production in CHO FSHR cells + EC20 FSH (0.265 pM), HTRF
T1 construct: expressed in transfected cells; host or cells: CHO (Cho-FSHR-LUC-1-1-43)
T1 sequence (P23945 18-695): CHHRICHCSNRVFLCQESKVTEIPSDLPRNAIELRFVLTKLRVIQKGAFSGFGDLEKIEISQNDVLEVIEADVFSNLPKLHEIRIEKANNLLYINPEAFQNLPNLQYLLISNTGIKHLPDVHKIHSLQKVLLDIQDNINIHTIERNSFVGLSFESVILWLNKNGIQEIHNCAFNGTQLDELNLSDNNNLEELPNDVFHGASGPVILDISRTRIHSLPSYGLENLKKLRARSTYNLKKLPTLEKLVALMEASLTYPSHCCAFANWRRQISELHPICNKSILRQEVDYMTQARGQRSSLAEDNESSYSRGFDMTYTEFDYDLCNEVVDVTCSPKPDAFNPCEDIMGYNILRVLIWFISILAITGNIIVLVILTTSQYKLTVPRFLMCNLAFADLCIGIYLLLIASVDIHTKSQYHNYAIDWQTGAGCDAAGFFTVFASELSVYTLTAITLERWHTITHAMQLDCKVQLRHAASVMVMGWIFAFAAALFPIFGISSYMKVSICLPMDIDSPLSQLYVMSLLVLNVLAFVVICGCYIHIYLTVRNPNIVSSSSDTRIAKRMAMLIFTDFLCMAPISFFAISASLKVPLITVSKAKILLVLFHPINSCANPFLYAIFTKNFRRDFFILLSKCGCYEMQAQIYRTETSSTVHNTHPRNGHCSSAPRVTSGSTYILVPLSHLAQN
Procedure: Example 24. EC50 of cyclic AMP production in CHO FSHR cells+EC20 FSH (Assay A)
2500 Cho-FSHR-LUC-1-1-43 cells were plated per well in 5 al of phenol red free DMEM/F12+1% FBS. Cells were plated in 384 well, solid white low volume plates (Greiner 784075) by Multidrop. Cells were assayed by adding 100 al of 2×EC20 FSH/IBMX in DMEM/F12+0.1% BSA) by Multidrop to 2 al of test compound stamped in 384 well plates (compounds are diluted 1:50). The final FSH concentration was 0.265 pM, and the final IBMX concentration was 200 μM. The compound plate map was as follows: Column 1: 2 μl of DMSO; Column 2: 2 μl of DMSO; Columns 3-12 and 13-24: 2 μl of test compound, diluted 1:4 in 100% DMSO, or 2 μl of FSH, diluted 1:4 in DMEM/F12+0.1% BSA. The starting concentration for FSH was 50 nM (final concentration was 0.5 nM). Furthermore, Column 23 contained 2 μl of EC100 FSH reference (100×) (diluted in DMEM/F12+0.1% BSA) at a final concentration of 0.5 nM, and Column 24 contained 2 μl of 1 mM AS707664/2 reference compound 2. 5 μl of compound+EC20 FSH mixture were transferred to cell plates (1:2 dilution into 5 μl of cell media) The plates were incubated at 37° C. for 1 h. 10 μl of mixed HTRF (CisBio #62AM4PEC) reagents were added per well and incubated at room temperature for 1 h. The plates were read on Envision using the cAMP HTRF—low volume 384 well protocol. The readout was the calculated fluorescence ratio (665 nm/620 nm). Values given in percent (%) indicate the percental effect (response) at a certain concentration of agonist relative to the maximum response of the FSH standard.

[2] = biological target: T2, follicle-stimulating hormone (FSH) receptor (Rattus norvegicus, UniProt P20395); assay: Rat granulosa EC50 FSH (Assay B); type: cell-based
T2 construct: endogenous in cells; host or cells: rat granulosa cells
T2 sequence (P20395 18-692): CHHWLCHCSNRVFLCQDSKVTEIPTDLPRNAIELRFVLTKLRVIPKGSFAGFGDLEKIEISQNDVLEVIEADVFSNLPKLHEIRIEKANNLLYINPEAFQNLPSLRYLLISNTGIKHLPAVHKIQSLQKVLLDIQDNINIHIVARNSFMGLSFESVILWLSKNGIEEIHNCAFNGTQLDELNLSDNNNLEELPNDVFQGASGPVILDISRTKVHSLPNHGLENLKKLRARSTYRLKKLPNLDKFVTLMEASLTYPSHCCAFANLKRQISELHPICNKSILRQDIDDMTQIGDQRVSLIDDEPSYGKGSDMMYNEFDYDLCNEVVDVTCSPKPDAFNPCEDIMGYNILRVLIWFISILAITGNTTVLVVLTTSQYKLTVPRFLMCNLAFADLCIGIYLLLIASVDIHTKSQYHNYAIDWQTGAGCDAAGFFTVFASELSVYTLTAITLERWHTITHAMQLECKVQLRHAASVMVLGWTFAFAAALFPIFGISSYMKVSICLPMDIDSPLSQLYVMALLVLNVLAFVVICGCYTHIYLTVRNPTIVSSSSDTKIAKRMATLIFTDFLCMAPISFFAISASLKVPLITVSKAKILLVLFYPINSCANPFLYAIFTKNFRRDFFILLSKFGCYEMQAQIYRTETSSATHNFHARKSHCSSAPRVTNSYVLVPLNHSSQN
Procedure: Example 25. Rat granulosa EC50 FSH (Assay B)
The assay was performed pursuant to the teaching of Yanofsky et al. (2006) Allosteric activation of the follicle-stimulating hormone (FSH) receptor by selective, nonpeptide agonists (JBC 281(19): 13226-13233, which is incorporated by reference in the disclosure of the invention).

EC50 [1] [nM]	EC50 [2] [nM]	Compound
10 to 100	10 to 100	COc1cc2c(cc1-c1cnn(CC(=O)N3CCC3)c1)-c1c(c(C(=O)N(C)C(C)(C)C)nn1-c1cc(Cl)cc(Cl)c1)CO2 [Compound 95, 8-(1-(2-(azetidin-1-yl)-2-oxoethyl)-1H-pyrazol-4-yl)-N-tert-butyl-1-(3,5-dichlorophenyl)-7-methoxy-N-methyl-1,4-dihydrochromeno[4,3-c]pyrazole-3-carboxamide]
< 10	101 to 500	COc1cc2c(cc1-c1cncc(N)c1)-c1c(c(C(=O)N(C)C(C)(C)C)nn1-c1cc(Cl)cc(Cl)c1)CO2 [Compound 20, 8-(5-aminopyridin-3-yl)-N-tert-butyl-1-(3,5-dichlorophenyl)-7-methoxy-N-methyl-1,4-dihydrochromeno[4,3-c]pyrazole-3-carboxamide]
10 to 100	101 to 500	COc1cc2c(cc1-c1nccnc1C#N)-c1c(c(C(=O)N(C)C(C)(C)C)nn1-c1cc(Cl)cc(Cl)c1)CO2 [Compound 112, N-tert-butyl-8-(3-cyanopyrazin-2-yl)-1-(3,5-dichlorophenyl)-7-methoxy-N-methyl-1,4-dihydrochromeno[4,3-c]pyrazole-3-carboxamide]
< 10	10 to 100	COc1cc2c(cc1-c1cc(C(N)=O)c[n+]([O-])c1)-c1c(c(C(=O)N3CCOCC3(C)C)nn1-c1cc(F)cc(F)c1)CO2 [Compound 176]
10 to 100	101 to 500	COc1cc2c(cc1-c1ccn(C)n1)-c1c(c(C(=O)N3CCC(O)CC3(C)C)nn1-c1ccsc1)CO2 (stereo not drawn) [Compound 57, (4-hydroxy-2,2-dimethylpiperidin-1-yl)(7-methoxy-8-(1-methyl-1H-pyrazol-3-yl)-1-(thiophen-3-yl)-1,4-dihydrochromeno[4,3-c]pyrazol-3-yl)methanone]
10 to 100	> 500	COc1cc2c(cc1-c1ccn(C)n1)-c1c(c(C(=O)N(C)C(C)(C)C)nn1-c1cc(F)cc(Cl)c1)CO2 [Compound 27, N-tert-butyl-1-(3-chloro-5-fluorophenyl)-7-methoxy-N-methyl-8-(1-methyl-1H-pyrazol-3-yl)-1,4-dihydrochromeno[4,3-c]pyrazole-3-carboxamide]
< 10	101 to 500	CNC(=O)Cn1nc(C)c(-c2cc3c(cc2OC)OCc2c(C(=O)N(C)C(C)(C)C)nn(-c4cc(Cl)cc(Cl)c4)c2-3)c1C [Compound 140]
< 10	10 to 100	COc1cc2c(cc1-c1cc(C(N)=O)ncc1F)-c1c(c(C(=O)N(C)C(C)(C)C)nn1-c1cc(F)cc(F)c1)CO2 [Compound 70, N-tert-butyl-8-(2-carbamoyl-5-fluoropyridin-4-yl)-1-(3,5-difluorophenyl)-7-methoxy-N-methyl-1,4-dihydrochromeno[4,3-c]pyrazole-3-carboxamide]
< 10	10 to 100	COc1cc2c(cc1-c1cncc(CO)c1)-c1c(c(C(=O)N3CCOCC3(C)C)nn1-c1cc(Cl)cc(Cl)c1)CO2 [Compound 24, (1-(3,5-dichlorophenyl)-8-(5-(hydroxymethyl)pyridin-3-yl)-7-methoxy-1,4-dihydrochromeno[4,3-c]pyrazol-3-yl)(3,3-dimethylmorpholino)methanone]
10 to 100	101 to 500	COc1cc2c(cc1-c1ccn(C)n1)-c1c(c(C(=O)N(C)C(C)(C)C#N)nn1-c1cc(Cl)cc(Cl)c1)CO2 [Compound 132, N-(2-cyanopropan-2-yl)-1-(3,5-dichlorophenyl)-7-methoxy-N-methyl-8-(1-methyl-1H-pyrazol-3-yl)-1,4-dihydrochromeno[4,3-c]pyrazole-3-carboxamide]
< 10	101 to 500	CCOC(=O)C1CC1c1cc2c(cc1OC)OCc1c(C(=O)N(C)C(C)(C)C)nn(-c3cc(Cl)cc(Cl)c3)c1-2 (stereo not drawn) [Compound 196]
< 10	10 to 100	COc1cc2c(cc1-c1ccnc(C#N)c1)-c1c(c(C(=O)N(C)C(C)(C)C)nn1-c1cc(Cl)cc(Cl)c1)CO2 [Compound 21, N-tert-butyl-8-(2-cyanopyridin-4-yl)-1-(3,5-dichlorophenyl)-7-methoxy-N-methyl-1,4-dihydrochromeno[4,3-c]pyrazole-3-carboxamide]
< 10	10 to 100	COc1cc(OC)cc(-n2nc(C(=O)N(C)C(C)(C)C)c3c2-c2cc(-c4cc(C(N)=O)c[n+]([O-])c4)c(OC)cc2OC3)c1 [Compound 175]
10 to 100	101 to 500	COc1cc2c(cc1-c1cc(C)cnc1OC)-c1c(c(C(=O)N(C)C(C)(C)C)nn1-c1cc(Cl)cc(Cl)c1)CO2 [Compound 189, N-tert-butyl-1-(3,5-dichlorophenyl)-7-methoxy-8-(2-methoxy-5-methylpyridin-3-yl)-N-methyl-1,4-dihydrochromeno[4,3-c]pyrazole-3-carboxamide]
< 10	> 500	COc1cc2c(cc1-c1cc(C(=O)O)ccc1F)-c1c(c(C(=O)N(C)C(C)(C)C)nn1-c1cc(Cl)cc(Cl)c1)CO2 [Compound 82, 3-(3-(tert-butyl(methyl)carbamoyl)-1-(3,5-dichlorophenyl)-7-methoxy-1,4-dihydrochromeno[4,3-c]pyrazol-8-yl)-4-fluorobenzoic acid]
< 10	101 to 500	COc1cc2c(cc1-c1cccnc1F)-c1c(c(C(=O)N3CC[S+]([O-])CC3(C)C)nn1-c1cc(Cl)cc(Cl)c1)CO2 (stereo not drawn) [Compound 6, (1-(3,5-dichlorophenyl)-8-(2-fluoropyridin-3-yl)-7-methoxy-1H,4H-chromeno[4,3-c]pyrazol-3-yl)(S-oxo-3,3-dimethylthiomorpholino)methanone]
< 10	101 to 500	COc1cc2c(cc1-c1cncc(C#N)c1)-c1c(c(C(=O)N3CCC(O)CC3(C)C)nn1-c1cc(F)cc(F)c1)CO2 (stereo not drawn) [Compound 50, 5-(1-(3,5-difluorophenyl)-3-(4-hydroxy-2,2-dimethylpiperidine-1-carbonyl)-7-methoxy-1,4-dihydrochromeno[4,3-c]pyrazol-8-yl)nicotinonitrile]
10 to 100	101 to 500	COc1cc2c(cc1-c1cc(C#N)ccn1)-c1c(c(C(=O)N(C)C(C)(C)C)nn1-c1cc(Cl)cc(Cl)c1)CO2 [Compound 26, N-tert-butyl-8-(4-cyanopyridin-2-yl)-1-(3,5-dichlorophenyl)-7-methoxy-N-methyl-1,4-dihydrochromeno[4,3-c]pyrazole-3-carboxamide]
